These results are taken from US6548270B1, “DNA encoding human acid-sensing ion channel BNaC4 (ASIC4)” (Ortho-McNeil Pharmaceutical, Inc., priority 2000, dated 2003).

Assay [1] deals with T1, human BNaC4 (Homo sapiens, UniProt Q96FT7).
T1 sequence (Q96FT7 1-539): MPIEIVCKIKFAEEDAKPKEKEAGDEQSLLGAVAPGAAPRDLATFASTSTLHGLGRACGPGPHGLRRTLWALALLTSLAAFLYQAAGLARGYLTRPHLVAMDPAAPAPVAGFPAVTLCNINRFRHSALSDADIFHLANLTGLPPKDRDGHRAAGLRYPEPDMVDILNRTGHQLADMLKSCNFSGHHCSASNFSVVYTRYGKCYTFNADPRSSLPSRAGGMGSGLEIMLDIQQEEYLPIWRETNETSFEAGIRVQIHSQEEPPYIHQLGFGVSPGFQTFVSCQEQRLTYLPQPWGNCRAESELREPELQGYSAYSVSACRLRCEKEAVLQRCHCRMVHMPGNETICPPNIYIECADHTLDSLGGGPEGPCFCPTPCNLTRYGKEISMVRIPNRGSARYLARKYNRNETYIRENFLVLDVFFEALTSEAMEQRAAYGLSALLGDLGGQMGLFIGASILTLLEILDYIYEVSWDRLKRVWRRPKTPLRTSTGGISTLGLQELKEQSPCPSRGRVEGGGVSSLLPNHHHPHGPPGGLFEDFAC
Nature of the assay: pH 4.5-elicited current in HEK293 cells transiently expressing human BNaC4 (whole cell patch clamp). Type of assay: cell-based. Also on record: achieved by transfection of full-length human BNaC4 cDNA into a mammalian host cell; expressed in transfected cells; host or cells: HEK293, transient co-transfection of phBNaC4 (pCI Neo) and pEGFP. To be noted: 500 uM amiloride; HEK293 cells transfected with hBNaC4; n=3. As for the experimental part: Human HEK293 cells were transfected with human BNaC4 (phBNaC4) together with the pEGFP vector (Clontech). Transient transfections 2 μg of phBNAC4 together with 1 μg pEGFP per 10^6 cells per 100 mm dish are performed using the Effectene transfection kit (Quiagen; 301425). Two to three days after transfection, cells are plated onto 12 mm round coverslips and maintained in growth media overnight. After one day, wells were tested for their whole cell response to application of low pH from nearby puffer pipettes using whole cell voltage clamp. Cells expressing GFP were tested (GFP-positive cells). Transfections with vector alone with GFP were used as controls (GFP-positive). […] The standard physiological saline (“Tyrodes”) contained: 130 mM NaCl, 4 mM KCl, 1 mM CaCl2, 1.2 mM MgCl2, and 10 mM hemi-Na-HEPES (pH 7.3, 295-300 mOsm as measured using a Wescor 5500 vapor-pressure (Wescor, Inc., Logan, Utah). Recording electrodes were fabricated from borosilicate capillary tubing (R6; Garner Glass, Claremont, Calif.), the tips are coated with dental periphery wax (Miles Laboratories, South Bend, Ind.), and have resistances of 1-2 MΩ when containing intracellular saline: 100 mM K-gluconate, 25 mM KCl, 0.483 mM CaCl2, 3 mM MgCl2, 10 mM hemi-Na-HEPES and 1 mM K4-BAPTA (100 nM free Ca^+2); pH 7.4, with dextrose added to achieve 290 mOsm). […]

Assay [2] has as its target T2, ASIC1A (Rattus norvegicus, UniProt P55926).
T2 sequence (P55926 1-526): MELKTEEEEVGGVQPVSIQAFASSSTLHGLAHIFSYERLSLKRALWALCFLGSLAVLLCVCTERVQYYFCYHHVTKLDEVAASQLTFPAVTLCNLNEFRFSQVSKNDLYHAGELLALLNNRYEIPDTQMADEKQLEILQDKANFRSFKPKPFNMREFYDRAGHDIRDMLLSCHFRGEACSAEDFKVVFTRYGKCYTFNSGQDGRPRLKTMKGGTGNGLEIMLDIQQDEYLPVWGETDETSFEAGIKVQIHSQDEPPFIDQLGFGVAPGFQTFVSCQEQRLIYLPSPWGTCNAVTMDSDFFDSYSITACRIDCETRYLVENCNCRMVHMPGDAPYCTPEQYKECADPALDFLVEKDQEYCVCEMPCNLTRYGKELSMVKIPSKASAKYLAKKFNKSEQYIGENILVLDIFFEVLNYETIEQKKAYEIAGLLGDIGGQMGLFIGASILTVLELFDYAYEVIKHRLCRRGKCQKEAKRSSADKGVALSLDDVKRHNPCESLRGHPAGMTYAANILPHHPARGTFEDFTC
To be noted: read-out: Amiloride sensitivity, KD; cited from earlier work.

As a reminder, the Kd is the equilibrium constant for the complex coming apart.

Consider `N=C(N)NC(=O)c1nc(Cl)c(N)nc1N` [amiloride], for which the “block of the pH 4.5 effect (current elicited by pH 4.5)” value in assay [1] is recorded as 98+/−2%. In addition, in assay [2], the Kd was roughly 10 µM.
